This passage reports TGI results from PubChem BioAssay (NCI).

Holding throughout (assay): DTP human tumour cell line panel, 48 h
The test system of assay [1] is A498 renal.
The test system of assay [2] is A549 NSCLC.
For assay [3], the system named is COLO 205 colon.
Assay [4] has as its system LOX IMVI melanoma.
For assay [5], the system named is MDA-MB-435.
Assay [6] has as its system NCI-H23 lung.
For assay [7], the system named is SF-295 CNS.
Assay [8] deals with SNB-75 CNS.
The test system of assay [9] is T-47D breast.
The test system of assay [10] is UACC-62 melanoma.

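Cultured in 96-well plates, cells were exposed to test compound for 48 hours across five concentrations. The concentration for full growth arrest is given as TGI.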 Where a SMILES comes first, the peptide text is derived from it. The star is where a group is joined. Boc = CC(C)(C)OC(=O)*; OBn = c1ccc(CO*)cc1 Bounds are passed on as bounds.

`CC(C)(C)C1(COC(=O)c2ccc(N)cc2)COC1`: the TGI in assay [1], in assay [2], in [3], in [4], in assay [5] and in [6] was above 100 µM in each case. Further, the TGI in [7], in assay [8], in [9] and in assay [10] was above 100 µM each time.

Regarding `CC[C@H](C)[C@H]1NC(=O)[C@@H](NC(=O)[C@@H](CC(C)C)N(C)CC2CCCN2C(=O)C(C)=O)[C@@H](C)OC(=O)[C@H](Cc2ccc(OC)cc2)N(C)C(=O)C2CCCN2C(=O)[C@H](CC(C)C)NC(=O)[C@@H](C)C(=O)[C@H](C(C)C)OC(=O)C[C@@H]1O` (stereo partly drawn), the TGI (as a rule, the concentration at which net growth stops) in [1] turned out to be 0.0146 µM; in assay [2], 0.0335 µM; in [3], 0.00879 µM; in [4], 0.00861 µM; in [5], 0.0105 µM; in assay [6], 0.0591 µM. In addition, the TGI in assay [7] came to 0.042 µM; in [8] it was 0.0108 µM; in assay [9], 0.012 µM; in assay [10], 0.0182 µM.

Take `COc1cc(/C=C2\N=C(c3ccccc3)N(c3nc4c(OC)ccc(OC)c4s3)C2=O)cc(OC)c1OC`: the TGI in assay [1], in assay [2], in assay [3], in assay [4], in assay [5] and in assay [6] was above 100 µM each time. For the same molecule, the TGI in assay [7], in [8], in assay [9] and in assay [10] was above 100 µM in each case.

For the molecule `CCCNC(C#N)c1ccc(C(C#N)NCCC)cc1` (stereo not drawn), the concentration for total growth inhibition (TGI) in assay [1], in assay [2], in assay [3], in assay [4], in [5] and in assay [6] was above 100 µM each time. For the same molecule, the TGI in [7], in [9] and in assay [10] was above 100 µM each time.

Turning to `O=C1COc2ccc([N+](=O)[O-])cc2C(=O)C1`, the concentration for total growth inhibition (TGI) in assay [1], in assay [2], in assay [3], in assay [4], in assay [5] and in assay [6] was above 10 µM each time. In addition, the TGI in assay [7], in assay [9] and in [10] was above 10 µM each time.

Turning to `COc1cc(CC2c3cc(OC)c(OC)cc3CCN2C)c(Oc2cc3c(cc2OC)-c2c(O)c(OC)cc4c2C(C3)N(C)CC4)cc1OC` (stereo not drawn), the TGI in [1] was 43 µM; in assay [2], above 100 µM; in [3], 42.5 µM; in assay [4], 67.9 µM; in [5], 94.3 µM; in assay [6], 42.8 µM. The total growth inhibition concentration (TGI) in assay [7] is 35.4 µM; in assay [8], 31.3 µM; in assay [9] it was 55 µM; in assay [10], 40.1 µM.

In the case of `CCCCCCCCCCCCCCCCCCNc1ccn(C2OC(COP(=O)(O)OCC3OC(n4cc(C)c(=O)[nH]c4=O)CC3N=[N+]=[N-])C(O)C2O)c(=O)n1` (stereo not drawn), the TGI is above 100 µM in [2]; 30.7 µM in [3]; 37.8 µM in assay [4]; 63.2 µM in assay [5]; 36 µM in assay [6]; 32.6 µM in [7]. For the same molecule, the figures for the concentration for total growth inhibition (TGI) in assay [8], in assay [9] and in assay [10] were 58.5 µM, above 100 µM and 36.4 µM, respectively.

For `CCOC(=O)CNC(=O)C(C)NC(=O)C(NC(=O)CC(c1ncc[nH]1)c1ncc[nH]1)C(C)CC` (stereo not drawn), the TGI in assay [1], in assay [2], in assay [3], in assay [4], in assay [5] and in [6] was above 100 µM in each case. Also, the TGI in [7], in assay [8], in [9] and in [10] was above 100 µM in each case.

For the molecule `O=C1/C(=C/c2ccccc2[N+](=O)[O-])N=C(c2ccccc2)N1C1Nc2cc3c(cc2S1)NC(N1C(=O)/C(=C/c2ccccc2[N+](=O)[O-])N=C1c1ccccc1)S3` (stereo not drawn), the TGI in assay [1], in assay [2], in assay [4], in assay [5], in assay [6] and in assay [7] was above 100 µM in each case. The TGI in assay [8] and in [9] was above 100 µM throughout.

For `Cc1cc(-c2nc3ccccc3s2)ccc1NC(=O)[C@H](C)N`, the TGI in assay [1] was 28.6 µM; in assay [2], 27.3 µM; in assay [3], 26.7 µM; in [4], above 100 µM; in assay [5], 19.9 µM; in assay [6] it was 33.9 µM. In addition, the concentration for total growth inhibition (TGI) in [7] amounted to 29.3 µM; in assay [8] it was 26.1 µM; in [9], 21.4 µM; in assay [10] it was 29.1 µM.

Take `CN(C)CCNC(=O)c1cccc2nc3c(nc12)-c1ccccc1C3=O`: the TGI in assay [1] is 29.5 µM; in assay [2], 37.7 µM; in assay [3], 58.5 µM; in assay [4], 12.7 µM; in [5], 32.1 µM; in [6] it was 35.4 µM. The TGI in assay [7] worked out at 39 µM; in assay [8] it was 31 µM; in assay [9], 37.4 µM; in [10], 60.4 µM.

On to `COc1ccc2c(c1)n([O-])c(C#N)c(N1CCN(c3ccc([N+](=O)[O-])cc3)CC1)[n+]2=O`, for which the TGI is above 100 µM in assay [2]; above 28.8 µM in assay [4]; 97.3 µM in assay [5]; above 100 µM in [6]; above 48.1 µM in [7]; 66.2 µM in assay [8]. Moreover, the total growth inhibition concentration (TGI) in assay [9] is 14.8 µM; in assay [10] it was above 100 µM.

`CSc1c(C#N)c(=O)[nH]c2n[nH]c(C)c12`: the TGI in [1], in [2], in assay [3], in assay [4], in [5] and in assay [6] was above 100 µM each time. Moreover, the TGI in [8], in [9] and in assay [10] was above 100 µM throughout.

In the case of `O=C(OCc1ccccc1)C1(N2CN(C3(C(=O)OCc4ccccc4)CCCC3)CN(C3(C(=O)OCc4ccccc4)CCCC3)C2)CCCC1`, the TGI in assay [2], in assay [3], in [4], in assay [5], in assay [6] and in assay [7] was above 10 µM each time. Also, the TGI in assay [8], in assay [9] and in assay [10] was above 10 µM in each case.

Turning to `COC(=O)n1c(=O)n(-c2ccccc2)c(=O)n1C(=O)OC`, the TGI in [1], in [2], in [3], in assay [4], in assay [5] and in assay [6] was above 100 µM each time. The TGI in [8], in [9] and in assay [10] was above 100 µM in each case.

As for `O=c1cc(N2CCCC2)[nH]c(=O)n1-c1cccc(C(F)(F)F)c1`, the TGI in assay [1], in [3], in [4], in assay [5], in assay [6] and in assay [7] was above 100 µM in each case. Besides, the total growth inhibition concentration (TGI) in [8], in [9] and in assay [10] was above 100 µM throughout.

In the case of `Fc1ccc(N=NN2CCCC2)cc1`, the TGI in [1], in [2], in [3], in assay [4], in [5] and in assay [6] was above 100 µM each time. Moreover, the TGI in assay [7], in [9] and in assay [10] was above 100 µM in each case.

For `COP(=O)(OC)C(Cc1c[nH]c2ccccc12)NC(=O)OCc1ccccc1` (stereo not drawn), the TGI in assay [1], in assay [2], in assay [3], in assay [4], in assay [5] and in [6] was above 100 µM throughout. The TGI in assay [7], in assay [8] and in [9] was above 100 µM each time.

With `CCOC(=O)/C=C(\C(=O)OCC)n1ccc(N)nc1=O`, the TGI in assay [2], in [3], in [4], in assay [5], in assay [6] and in assay [7] was above 100 µM in each case. For the same molecule, the TGI in [8], in assay [9] and in [10] was above 100 µM each time.

Consider `O=C1C=C(Br)c2c(Br)sc(Br)c21`, for which the TGI in assay [2] is above 77.3 µM; in assay [3], 15.9 µM; in assay [4], 5.77 µM; in assay [5], 42.9 µM; in assay [6], 25.6 µM; in [7], 99.4 µM. Further, the results for the TGI in assay [8], in [9] and in assay [10] were 39.7 µM, 31.4 µM and 29.2 µM, respectively.

On to `C=CCNC(=O)NC1=CSC2=NC(=O)C3(NN12)c1ccccc1-c1ccccc13`, for which the TGI in assay [2], in assay [3], in assay [4], in assay [5], in [6] and in [7] was above 10 µM each time. The TGI in assay [8], in assay [9] and in assay [10] was above 10 µM throughout.

In the case of `CC(NC(=O)C(NC(=O)OC(C)(C)C)C(C)C)C(=O)N1CCCC1C(=O)NCC(=O)NC(C(=O)NCC(=O)OCc1ccccc1)C(C)C` (stereo not drawn) (Boc-VAPGVG-OBn; configuration not given here), the TGI in [1], in assay [3], in assay [4], in assay [5], in assay [6] and in assay [7] was above 100 µM in each case. Moreover, the concentration for total growth inhibition (TGI) in assay [8], in assay [9] and in assay [10] was above 100 µM throughout.

For the molecule `COC(=O)c1cc(C#N)[nH]c1-c1ccc(C)s1`, the TGI in assay [1] is 68.1 µM; in assay [2], above 100 µM; in assay [3], above 100 µM; in [5] it was above 100 µM; in [6] it was above 100 µM; in assay [7], above 100 µM. Further, the TGI in [8], in assay [9] and in assay [10] was above 100 µM throughout.

Consider `COc1ccc(-c2c(N)n(-c3cccc(C(=O)O)c3)c(=O)c3cc([N+](=O)[O-])ccc23)cc1`, for which the concentration for total growth inhibition (TGI) in [1], in assay [2], in assay [4], in assay [5], in assay [6] and in [7] was above 100 µM throughout. The TGI in assay [8], in [9] and in [10] was above 100 µM each time.

Take `Cc1nc2ccc(S(=O)(=O)O)cc2c(=O)n1-c1ccc(C(=O)NN2C(=O)C(Cl)C2c2ccccc2O)cc1` (stereo not drawn): the TGI in [1], in assay [2], in assay [3], in [4], in assay [5] and in assay [6] was above 100 µM each time. Besides, the TGI in assay [7], in assay [8] and in assay [9] was above 100 µM in each case.

For the molecule `COC(=O)/C=C1\CCC(C)(C(=O)NS(=O)(=O)c2ccc(C)cc2)C1(C)C` (stereo not drawn), the TGI in assay [1], in [2], in [3], in [4], in [5] and in [6] was above 100 µM each time. Moreover, the TGI in assay [7], in assay [9] and in assay [10] was above 100 µM each time.

On to `COc1ccc(N=N/C(=N/NC(=O)c2ccccc2)c2ccc(N(CCC#N)CCC#N)cc2C)cc1`, for which the TGI in assay [1], in assay [2], in assay [3], in [5], in assay [6] and in [7] was above 100 µM throughout. Further, the TGI in [8], in [9] and in assay [10] was above 100 µM each time.
